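Tested at 5 concentrations; 48 h exposure; 96-well plates; endpoints linearly interpolated, else capped at highest concentration. The concentration for full growth arrest is given as TGI.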
Columns and labels:
Test in all cases: NCI tumour cell line growth inhibition, 48 h
SF-268 CNS = tested on: SF-268 CNS
BT-549 breast = tested on: BT-549 breast
K-562 leukemia = tested on: K-562 leukemia
786-0 renal = tested on: 786-0 renal
IGROV1 ovarian = tested on: IGROV1 ovarian
HL-60(TB) leukemia = tested on: HL-60(TB) leukemia
HCT-15 colon = tested on: HCT-15 colon
SNB-75 CNS = tested on: SNB-75 CNS
U251 CNS = tested on: U251 CNS
UACC-257 melanoma = tested on: UACC-257 melanoma
PC-3 prostate = tested on: PC-3 prostate
KM12 colon = tested on: KM12 colon
T-47D breast = tested on: T-47D breast
M14 melanoma = tested on: M14 melanoma
RPMI-8226 leukemia = tested on: RPMI-8226 leukemia
NCI-H23 lung = tested on: NCI-H23 lung
HCT-116 colon = tested on: HCT-116 colon
SK-MEL-5 melanoma = tested on: SK-MEL-5 melanoma
ACHN renal = tested on: ACHN renal
TK-10 renal = tested on: TK-10 renal
EKVX NSCLC = tested on: EKVX NSCLC
DU-145 prostate = tested on: DU-145 prostate
NCI-H460 lung = tested on: NCI-H460 lung
OVCAR-5 ovarian = tested on: OVCAR-5 ovarian
MDA-MB-435 = tested on: MDA-MB-435
SW-620 colon = tested on: SW-620 colon
CAKI-1 renal = tested on: CAKI-1 renal
SK-OV-3 ovarian = tested on: SK-OV-3 ovarian
UACC-62 melanoma = tested on: UACC-62 melanoma
HT29 colon = tested on: HT29 colon
RXF 393 renal = tested on: RXF 393 renal
OVCAR-4 ovarian = tested on: OVCAR-4 ovarian
MOLT-4 leukemia = tested on: MOLT-4 leukemia
SF-295 CNS = tested on: SF-295 CNS
SF-539 CNS = tested on: SF-539 CNS
OVCAR-8 ovarian = tested on: OVCAR-8 ovarian
CCRF-CEM leukemia = tested on: CCRF-CEM leukemia
HOP-92 NSCLC = tested on: HOP-92 NSCLC
HS 578T breast = tested on: HS 578T breast
UO-31 renal = tested on: UO-31 renal
SNB-19 CNS = tested on: SNB-19 CNS
MALME-3M melanoma = tested on: MALME-3M melanoma
MDA-MB-231 breast = tested on: MDA-MB-231 breast
COLO 205 colon = tested on: COLO 205 colon
MDA-N = tested on: MDA-N
LOX IMVI melanoma = tested on: LOX IMVI melanoma
HOP-62 NSCLC = tested on: HOP-62 NSCLC
SN12C renal = tested on: SN12C renal
A549 NSCLC = tested on: A549 NSCLC
MCF7 breast = tested on: MCF7 breast
OVCAR-3 ovarian = tested on: OVCAR-3 ovarian
NCI-H226 lung = tested on: NCI-H226 lung
NCI-H522 lung = tested on: NCI-H522 lung
NCI/ADR-RES ovarian = tested on: NCI/ADR-RES ovarian
A498 renal = tested on: A498 renal
HCC-2998 colon = tested on: HCC-2998 colon
SK-MEL-2 melanoma = tested on: SK-MEL-2 melanoma
SK-MEL-28 melanoma = tested on: SK-MEL-28 melanoma

N#Cc1cc(-c2nc3ccc(F)cc3s2)ccc1N
TGI (SF-268 CNS): > 100 µM
TGI (BT-549 breast): > 100 µM
TGI (K-562 leukemia): > 100 µM
TGI (786-0 renal): > 100 µM
TGI (IGROV1 ovarian): > 100 µM
TGI (HL-60(TB) leukemia): > 100 µM
TGI (HCT-15 colon): > 100 µM
TGI (SNB-75 CNS): > 100 µM
TGI (U251 CNS): > 100 µM
TGI (UACC-257 melanoma): > 100 µM
TGI (PC-3 prostate): > 100 µM
TGI (KM12 colon): > 100 µM
TGI (T-47D breast): > 100 µM
TGI (M14 melanoma): > 100 µM
TGI (RPMI-8226 leukemia): > 100 µM
TGI (NCI-H23 lung): > 100 µM
TGI (HCT-116 colon): > 100 µM
TGI (SK-MEL-5 melanoma): > 100 µM
TGI (ACHN renal): > 100 µM
TGI (TK-10 renal): > 100 µM
TGI (EKVX NSCLC): > 100 µM
TGI (DU-145 prostate): > 100 µM
TGI (NCI-H460 lung): > 100 µM
TGI (OVCAR-5 ovarian): > 100 µM
TGI (MDA-MB-435): > 100 µM
TGI (SW-620 colon): > 100 µM
TGI (CAKI-1 renal): > 100 µM
TGI (SK-OV-3 ovarian): 96.6 µM
TGI (UACC-62 melanoma): > 100 µM
TGI (HT29 colon): > 100 µM
TGI (RXF 393 renal): > 100 µM
TGI (OVCAR-4 ovarian): > 100 µM
TGI (MOLT-4 leukemia): > 100 µM
TGI (SF-295 CNS): > 100 µM
TGI (SF-539 CNS): > 100 µM
TGI (OVCAR-8 ovarian): > 100 µM
TGI (CCRF-CEM leukemia): > 100 µM
TGI (HOP-92 NSCLC): > 100 µM
TGI (HS 578T breast): > 100 µM
TGI (UO-31 renal): > 100 µM
TGI (SNB-19 CNS): > 100 µM
TGI (MALME-3M melanoma): > 100 µM
TGI (MDA-MB-231 breast): > 100 µM
TGI (COLO 205 colon): > 100 µM
TGI (MDA-N): > 100 µM
TGI (LOX IMVI melanoma): > 100 µM
TGI (HOP-62 NSCLC): > 100 µM
TGI (SN12C renal): > 100 µM
TGI (A549 NSCLC): > 100 µM
TGI (MCF7 breast): > 100 µM
TGI (OVCAR-3 ovarian): > 100 µM
TGI (NCI-H226 lung): > 100 µM
TGI (NCI-H522 lung): > 100 µM
TGI (NCI/ADR-RES ovarian): > 100 µM
TGI (A498 renal): > 100 µM

COc1ccc(-c2nc3ccccc3c(=O)[nH]2)c(OC)c1
TGI (SF-268 CNS): > 100 µM
TGI (BT-549 breast): > 100 µM
TGI (786-0 renal): > 100 µM
TGI (IGROV1 ovarian): > 100 µM
TGI (HCT-15 colon): > 100 µM
TGI (SNB-75 CNS): > 100 µM
TGI (U251 CNS): > 100 µM
TGI (UACC-257 melanoma): > 100 µM
TGI (PC-3 prostate): > 100 µM
TGI (KM12 colon): > 100 µM
TGI (T-47D breast): > 100 µM
TGI (M14 melanoma): > 100 µM
TGI (RPMI-8226 leukemia): 83.4 µM
TGI (NCI-H23 lung): > 100 µM
TGI (HCT-116 colon): > 100 µM
TGI (SK-MEL-5 melanoma): > 100 µM
TGI (ACHN renal): > 100 µM
TGI (EKVX NSCLC): > 100 µM
TGI (DU-145 prostate): > 100 µM
TGI (NCI-H460 lung): > 100 µM
TGI (OVCAR-5 ovarian): > 100 µM
TGI (MDA-MB-435): > 100 µM
TGI (SW-620 colon): > 100 µM
TGI (CAKI-1 renal): > 100 µM
TGI (SK-OV-3 ovarian): > 100 µM
TGI (UACC-62 melanoma): > 100 µM
TGI (HT29 colon): > 100 µM
TGI (RXF 393 renal): > 100 µM
TGI (OVCAR-4 ovarian): > 100 µM
TGI (MOLT-4 leukemia): > 100 µM
TGI (SF-295 CNS): > 100 µM
TGI (OVCAR-8 ovarian): > 100 µM
TGI (CCRF-CEM leukemia): > 100 µM
TGI (HS 578T breast): > 100 µM
TGI (UO-31 renal): > 100 µM
TGI (HCC-2998 colon): > 100 µM
TGI (SNB-19 CNS): > 100 µM
TGI (MALME-3M melanoma): > 100 µM
TGI (SK-MEL-2 melanoma): > 100 µM
TGI (MDA-MB-231 breast): > 100 µM
TGI (COLO 205 colon): > 100 µM
TGI (MDA-N): > 100 µM
TGI (HOP-62 NSCLC): > 100 µM
TGI (SN12C renal): > 100 µM
TGI (A549 NSCLC): > 100 µM
TGI (MCF7 breast): > 100 µM
TGI (OVCAR-3 ovarian): > 100 µM
TGI (NCI-H226 lung): > 100 µM
TGI (NCI/ADR-RES ovarian): > 100 µM
TGI (A498 renal): > 100 µM

CCCCCCCCCCCC(=O)c1c(O)cc(C)oc1=O
TGI (SF-268 CNS): > 100 µM
TGI (BT-549 breast): > 100 µM
TGI (K-562 leukemia): > 100 µM
TGI (786-0 renal): > 100 µM
TGI (IGROV1 ovarian): > 100 µM
TGI (HL-60(TB) leukemia): > 100 µM
TGI (HCT-15 colon): > 100 µM
TGI (SNB-75 CNS): > 100 µM
TGI (U251 CNS): > 100 µM
TGI (UACC-257 melanoma): > 100 µM
TGI (PC-3 prostate): > 100 µM
TGI (KM12 colon): > 100 µM
TGI (T-47D breast): > 100 µM
TGI (M14 melanoma): > 100 µM
TGI (RPMI-8226 leukemia): > 100 µM
TGI (NCI-H23 lung): > 100 µM
TGI (HCT-116 colon): > 100 µM
TGI (SK-MEL-5 melanoma): 68.6 µM
TGI (ACHN renal): > 100 µM
TGI (TK-10 renal): > 100 µM
TGI (EKVX NSCLC): > 100 µM
TGI (DU-145 prostate): > 100 µM
TGI (NCI-H460 lung): > 100 µM
TGI (OVCAR-5 ovarian): > 100 µM
TGI (MDA-MB-435): > 100 µM
TGI (SW-620 colon): > 100 µM
TGI (CAKI-1 renal): > 100 µM
TGI (SK-OV-3 ovarian): > 100 µM
TGI (UACC-62 melanoma): > 100 µM
TGI (HT29 colon): > 100 µM
TGI (MOLT-4 leukemia): > 100 µM
TGI (SF-295 CNS): > 100 µM
TGI (SK-MEL-28 melanoma): > 100 µM
TGI (SF-539 CNS): 93.3 µM
TGI (OVCAR-8 ovarian): > 100 µM
TGI (CCRF-CEM leukemia): > 100 µM
TGI (HS 578T breast): > 100 µM
TGI (UO-31 renal): > 100 µM
TGI (HCC-2998 colon): > 100 µM
TGI (SNB-19 CNS): > 100 µM
TGI (MALME-3M melanoma): > 100 µM
TGI (SK-MEL-2 melanoma): > 100 µM
TGI (MDA-MB-231 breast): > 100 µM
TGI (COLO 205 colon): > 100 µM
TGI (MDA-N): > 100 µM
TGI (LOX IMVI melanoma): > 100 µM
TGI (HOP-62 NSCLC): > 100 µM
TGI (SN12C renal): > 100 µM
TGI (A549 NSCLC): > 100 µM
TGI (MCF7 breast): > 100 µM
TGI (OVCAR-3 ovarian): > 100 µM
TGI (NCI-H226 lung): > 100 µM
TGI (NCI-H522 lung): > 100 µM
TGI (NCI/ADR-RES ovarian): > 100 µM
TGI (A498 renal): > 100 µM

Reference: PubChem BioAssay (NCI)
